Each block holds one molecule with its values, some of them ahead of it.
Columns and labels:
[1] = tested on: tissues at the target site; assay: drug absorption by tissue after 0.2-2 minute deployment of coated balloon; format: in vivo; details: coating with paclitaxel, after 0.2-2 minutes of deployment
[2] = tested on: Serum albumin; details: cited from earlier work
[3] = octanol/water; cited from earlier work
[4] = BSA added; cited from earlier work
[5] = stability of additive with paclitaxel under ethylene oxide sterilization, heating and aging; details: reacted with paclitaxel

Molecule: O=C1O[C@H](CO)[C@@H](O)[C@H](O)[C@H]1O [gluconolactone]
- drug absorption by tissue [1]: unexpectedly high

Molecule: CO[C@H]1C[C@@H]2CC[C@@H](C)[C@@](O)(O2)C(=O)C(=O)N2CCCC[C@H]2C(=O)O[C@H]([C@H](C)C[C@@H]2CC[C@@H](O)[C@H](OC)C2)CC(=O)[C@H](C)/C=C(\C)[C@@H](O)[C@@H](OC)C(=O)[C@H](C)C[C@H](C)/C=C/C=C/C=C/1C [rapamycin]
- protein bound [2]: 92%
- share of protein binding that is to albumin ([2]; primarily to albumin): 97%

Molecule: PEG-20 sorbitan monolaurate [Tween 20]
- log P [3]: about 3.0

- drug absorption by tissue [1]: unexpectedly high
Molecule: O=C1O[C@H](CO)[C@@H](O)[C@H]1O [ribonic acid lactone]

Molecule: CC(=O)O[C@H]1C(=O)[C@@]2(C)[C@H]([C@H](OC(=O)c3ccccc3)[C@]3(O)C[C@H](OC(=O)[C@H](O)[C@@H](NC(=O)c4ccccc4)c4ccccc4)C(C)=C1C3(C)C)[C@]1(OC(C)=O)CO[C@@H]1C[C@@H]2O [paclitaxel]
- increase of solubility in PBS with the addition of BSA [4]: over 20 fold

Molecule: OC[C@@H](O)[C@@H](O)[C@H](O)[C@@H](O)CO [sorbitol]
- log P [3]: −4.67

Molecule: O=C(O)c1ccccc1 [benzoic acid]
- stability under ethylene oxide sterilization, heating, and aging process [5]: not stable

Molecule: COc1ccc(O)c(C(C)(C)C)c1 [Butylated hydroxyanisole]
- log P [3]: 1.31

Reference: patent US20210154372A1, “MEDICAL DEVICE WITH DRUG-ELUTING COATING AND INTERMEDIATE LAYER” (C.R. Bard, Inc., priority 2017, published 2021)
